Laboratory results: ChEMBL document CHEMBL5120764, “Isarubrolone C Promotes Autophagic Degradation of Virus Proteins via Activating ATG10S in HepG2 Cells” (J Nat Prod, 2022)
Calls of active or inactive are those of the source.

Key:
Type in all cases: functional, cell-based
[1] = tested on: HepG2; assay: Induction of autophagy in human HepG2 cells transfected with HCV subgenomic replicon assessed as HCV-CORE/P62 combination at 10 uM incubated for 24 hrs in presence of anti-LC3B antibodies by co-immunoprecipitation assay
[2] = tested on: HepG2; assay: Downregulation of HCV-NS5B in human HepG2 cells transfected with HCV-subreplicon upto 10 uM incubated for 24 hrs by western blot analysis
[3] = tested on: HepG2; assay: Effect on HBx degradation in human HepG2 cells transfected with HBx at 10 uM pretreated with proteosome inhibitor MG132 for 12 hrs followed by compound addition and measured after 24 hrs by western blot analysis
[4] = tested on: HepG2; assay: Upregulation of P62 in human HepG2 cells transfected with ZIKV-NS5 and gene knockdown by IL28A morpholinos at 10 uM incubated for 24 hrs by western blot analysis
[5] = tested on: HepG2; assay: Upregulation of HBx in human HepG2 cells transfected with HBx and gene knockdown by IL28A morpholinos at 10 uM incubated for 24 hrs by western blot analysis
[6] = tested on: HepG2; assay: Induction of autophagy in human HepG2 cells transfected with HCV subgenomic replicon assessed as HCV-CORE/P62 combination at 10 uM incubated for 24 hrs in presence of anti-LAMP2 antibodies by co-immunoprecipitation assay
[7] = tested on: HepG2; assay: Induction of autophagy in human HepG2 cells transfected with HIV-RT assessed as increase in HIV-RT-LAMP2 interaction level at 10 uM incubated for 24 hrs in presence of anti-Flag antibodies by co-immunoprecipitation assay
[8] = tested on: HepG2; assay: Effect on LC3B-II protein degradation in human HepG2 cells at 10 uM pretreated with proteosome inhibitor MG132 for 12 hrs followed by compound addition and measured after 24 hrs by western blot analysis
[9] = tested on: HepG2; assay: Induction of autophagy in human HepG2 cells assessed as […] in LC3B marker expression level upto 10 uM and measured after 6 hrs by western blot analysis; details: DDE = dose-dependent effect
[10] = tested on: HepG2; assay: Downregulation of HCV-NS5B in human HepG2 cells co-transfected with HCV-subreplicon and ATG10-misMO upto 10 uM incubated for 24 hrs by western blot analysis
[11] = tested on: HepG2; assay: Effect on HCV-NS5B degradation in human HepG2 cells transfected with HCV sub-replicon at 10 uM pretreated with proteosome inhibitor MG132 for 12 hrs followed by compound addition and measured after 24 hrs by western blot analysis
[12] = tested on: HepG2; assay: Induction of autophagy in human HepG2 cells transfected with HIV-RT assessed as increase in HIV-RT-LC3B interaction level at 10 uM incubated for 24 hrs in presence of anti-Flag antibodies by co-immunoprecipitation assay
[13] = tested on: HepG2; assay: Upregulation of endogenous ATG10S activated co-localisation of HIV-RT with LAMP2 in human HepG2 cells co-transfected with HIV-RT and ATG10-misMO by cellular immunofluorescence assay
[14] = tested on: HepG2; assay: Induction of autophagy in human HepG2 cells transfected with HCV subgenomic replicon assessed as HCV-CORE/LAMP2 combination at 10 uM incubated for 24 hrs in presence of anti-LC3B antibodies by co-immunoprecipitation assay
[15] = tested on: HepG2; assay: Upregulation of endogenous ATG10S activated co-localisation of ZIKV-NS5 with LAMP2 in human HepG2 cells co-transfected with ZIKV-NS5 and ATG10-sMO by cellular immunofluorescence assay
[16] = tested on: HepG2; assay: Upregulation of endogenous ATG10S activated co-localisation of ZIKV-NS5 with LC3B in human HepG2 cells co-transfected with ZIKV-NS5 and ATG10-sMO by cellular immunofluorescence assay
[17] = tested on: HepG2; assay: Upregulation of endogenous ATG10S activated co-localisation of HCV-NS5B with LAMP2 in human HepG2 cells co-transfected with HCV sub-replicon and ATG10-misMO by cellular immunofluorescence assay
[18] = tested on: HepG2; assay: Induction of autophagy in human HepG2 cells transfected with HBx assessed as increase in HBx-LC3B interaction level at 10 uM incubated for 24 hrs in presence of anti-Flag antibodies by co-immunoprecipitation assay
[19] = tested on: HepG2; assay: Upregulation of ATG10/ATG10S mRNA level in human HepG2 cells transfected with HIV-RT upto 10 uM by RT-PCR analysis; details: DDE = dose-dependent effect
[20] = tested on: HepG2; assay: Induction of autophagy in human HepG2 cells transfected with HIV-RT assessed as decrease in HIV-RT protein level upto 10 uM and measured after 6 hrs by western blot analysis; details: DDE = dose-dependent effect
[21] = tested on: HepG2; assay: Induction of autophagy in human HepG2 cells transfected with HCV subgenomic replicon assessed as HCV-CORE/LAMP2 combination at 10 uM incubated for 24 hrs in presence of anti-LAMP2 antibodies by co-immunoprecipitation assay

Measured: Activity

CC[C@@H](O)c1nc(C)cc2c1C(=O)c1cc(=O)c3c(c(O)c1-2)O[C@@H]1O[C@H](C)[C@@H](OC)[C@@H](O)[C@]31O
active: [1] | [2] | [3] | [4] | [5] | [6] | [7] | [8] | [9] Dde | [10] | [11] | [12] | [13] | [14] | [15] | [16] | [17] | [18] | [19] Dde | [20] Dde | [21]
